Assay results as given in US20070014786A1, “Methods for treating taxol-induced gut disorder” (RINAT NEUROSCIENCE CORP., priority 2003, published 2007).

How the values were obtained:
[1] = tested on: Female Swiss-Webster mice; assay: Taxol-induced gut disorder mouse model: abdominal distension score; conditions: second experiment; taxol 300, 375 or 450 mg/m^2; scored weekly
Experimental: Female Swiss-Webster mice, eight weeks old were treated with vehicle alone (control), taxol alone, or agonist anti-trkC mouse monoclonal antibody 2256 (PCT WO 01/98361; Urfer et al. J. Biol. Chem. (1998) 273:5829-5840)) and taxol. Taxol was obtained from Calbiochem and prepared as a 20 mg/kg solution in Cremophor/ethanol (50:50 w/w), which was diluted with saline (1 part Cremophor/ethanol to four parts saline vol:vol), filtered through a 0.1 micron filter and administered intraperitoneally (“IP”) within 30 minutes of preparation. All treatment animals received one round of three taxol or control (vehicle) treatments every other day for three doses, i.e., day 1, 3 and 5 of the protocol. […] Taxol dose was determined on a mg/m^2 basis, using the formula that body surface area (in square cm) equals 10.5 times the weight in grams to the two-thirds power. […]
Taxol-induced gut disorder was assessed by measuring degree and quality of abdominal distension and intestinal hypertrophy after lifting the individual mouse by the tail. Degree and quality of taxol-induced abdominal distension was scored by a blinded observer using the following five point scale: • 0-no noticeable abdominal bulge • 1-slight bulge • 2-distinct bulge (may be full stomach) • 3-fat mouse • 4-definite lumpy abdomen • 5-swollen abdomen […]

[2] = tested on: Female Swiss-Webster mice; assay: Taxol-induced gut disorder mouse model: intestinal hypertrophy (weight and length of GI tract) and autopsy; type: in vivo
Experimental: Intestinal hypertrophy was assessed by measuring weight and length of the gastrointestinal (“GI”) tract as follows: animals were sacrificed, and the weight and length of the GI tract was assessed as follows: the entire GI tract was removed, emptied of any contents, and weighed. The GI tract was then separated into stomach, small intestine, and caecum plus large intestine and those parts were individually weighed.
Selected animals were sacrificed and subjected to autopsy. […] Ascites production was not observed in control animals.
Intestinal hypertrophy was assessed as described above. […] Ascites production was not observed in control animals.

[3] = target: T1, low affinity receptor (LNGFR), p75NTR or p75 (Homo sapiens, UniProt P08138); conditions: according to current knowledge (background); cited from earlier work
T1 sequence (P08138 29-427): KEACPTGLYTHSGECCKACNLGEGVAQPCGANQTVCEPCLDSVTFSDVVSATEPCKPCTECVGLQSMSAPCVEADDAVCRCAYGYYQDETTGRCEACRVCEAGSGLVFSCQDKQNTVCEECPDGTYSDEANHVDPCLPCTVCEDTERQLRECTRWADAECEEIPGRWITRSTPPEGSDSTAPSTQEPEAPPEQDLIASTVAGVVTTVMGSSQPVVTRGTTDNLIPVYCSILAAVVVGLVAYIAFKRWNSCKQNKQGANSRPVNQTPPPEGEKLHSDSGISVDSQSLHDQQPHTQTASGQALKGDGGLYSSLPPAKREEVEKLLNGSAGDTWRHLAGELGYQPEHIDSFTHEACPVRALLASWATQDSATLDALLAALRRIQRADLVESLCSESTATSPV

[4] = taxol 450 mg/m^2 (four weeks) or 375 mg/m^2 (six weeks)

Molecule	gut distension (FIG. 2) [1]	length of the GI tract (FIG. 8) [2, 4]	raw weight of the caecum plus large intestine (FIG. 9) [2, 4]	weight of the caecum plus large intestine (FIG. 6) ([2]; taxol 450 mg/m^2, four weeks)	weight of the small intestine (FIG. 5) ([2]; taxol 450 mg/m^2, four weeks)	weight of the GI tract from stomach through colon (FIG. 4) ([2]; taxol 450 mg/m^2, sacrificed at four weeks)	intestinal obstruction(s) and/or stool softening or diarrhea ([2]; taxol-treated animals at autopsy)	ascites in the peritoneum at autopsy ([2]; taxol-treated animals with abdominal distension, not observed in control animals)	Kd [3] [nM]
CC(=O)O[C@H]1C(=O)[C@@]2(C)[C@H]([C@H](OC(=O)c3ccccc3)[C@]3(O)C[C@H](OC(=O)[C@H](O)[C@@H](NC(=O)c4ccccc4)c4ccccc4)C(C)=C1C3(C)C)[C@]1(OC(C)=O)CO[C@@H]1C[C@@H]2O [taxol, paclitaxel]	resulted in gut distension	significant decrease	significant increase	significant increase	significant increase	significant increase	exhibited intestinal obstruction(s) and/or stool softening or diarrhea	Production of ascites in the peritoneum was noted	
neurotrophin-3 [NT-3]									2
nerve growth factor [NGF]									2
